Laboratory results as given in PubChem BioAssay (NCI).
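Compound exposure: 48 hours, 5 concentrations, 96-well plates. The concentration for 50% growth inhibition is given as GI50. At the TGI there is no net growth.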

Tested on: HOP-92 NSCLC
Assay: inhibition of tumour cell growth, NCI panel, 48 h

Question: With `COC(=O)C(CCCN1C(=O)c2ccccc2C1=O)C(=O)OC` as the molecule, how does the TGI read?
Answer: > 100 µM

Question: Which TGI does the source give for `COc1nc(NC2OC(COC(C)=O)C(OC(C)=O)C(OC(C)=O)C2OC(C)=O)c2c(OC(C)=O)cc(=O)oc2n1` (stereo not drawn) here?
Answer: > 100 µM

Question: `CC(C)(C)c1cc2c(O)c3cccc4c(=O)c5cccc6c5-c(c34)c2c(c1)c6=O` was tested. Which TGI did it give?
Answer: 96.5 µM

Question: For `COc1cc(/C(C#N)=C/c2nc3c(N4CCOCC4)nc(Cl)nc3n2C)cc(OC)c1OC`, which GI50 is on record?
Answer: 0.158 µM

Question: What about the TGI of the same molecule?
Answer: 4.38 µM

Question: Which TGI does the source give for `O=C1C=CC(=O)c2nc3c(cc21)CCC3` here?
Answer: 34.1 µM

Question: With `O=S(=O)(N/N=C/c1cccc(/C=N/NS(=O)(=O)c2ccccc2)c1)c1ccccc1` as the molecule, how does the TGI read?
Answer: 97.2 µM

Question: How did the TGI turn out when `CCCCN(CCCC)C(=O)C(=O)C(C(=O)c1ccc(OC)cc1)c1ccc(OC)cc1` (stereo not drawn) was run?
Answer: > 100 µM

Question: For `C=C(C)CCOC(c1ccccc1)(c1ccccc1)c1ccccc1`, which TGI is on record?
Answer: > 100 µM

Question: With `COc1ccc(C)cc1-c1cc(Sc2ccccc2)c(-c2cc(C)ccc2OC)o1` as the molecule, how does the TGI read?
Answer: > 31.6 µM

Question: How did the TGI turn out when `O=C(Nc1ccccc1-c1nn(C(=S)Nc2ccccc2)c(=S)n(C(=S)Nc2ccccc2)c1=O)C(F)(F)F` was run?
Answer: 57.9 µM

Question: Which TGI does the source give for `O=c1c(-c2ccccc2)c2oc(c1-c1ccccc1)CSCc1cccc(c1)CSC2` here?
Answer: > 100 µM

Question: With `CN(C)CCn1c2c3ccccc3ccc2c2oc(=O)c3ccccc3c21` as the molecule, how does the TGI read?
Answer: 17.6 µM

Tested on: OVCAR-4 ovarian
Assay: inhibition of tumour cell growth, NCI panel, 48 h

Question: For `CCCCCCCCCCCCCCCC[N+](C)(C)Cc1ccccc1`, which GI50 is on record?
Answer: 1.59 µM

Question: And the TGI?
Answer: 4.55 µM

Question: How did the TGI turn out when `CCCCCC[C@@H]1CCC2C(CO)[C@@H](O)CC[C@@H]2C1` (stereo partly drawn) was run?
Answer: 30.6 µM

Question: Which TGI does the source give for `NC(=O)c1ccccc1NC(=O)C(=O)C(C(=O)c1ccc(Cl)c(Cl)c1)C1OC(=O)c2ccccc21` (stereo not drawn) here?
Answer: > 100 µM

Question: Which TGI does the source give for `S=c1sc2c(n1-c1ccccc1)NC=NC2S` (stereo not drawn) here?
Answer: > 100 µM

Question: For `Cc1ccc(/C=C/C(=O)CCN(C)C)cc1`, which TGI is on record?
Answer: 30.4 µM

Question: With `Cc1ccc(Oc2ccc(C)cc2N)cc1` as the molecule, how does the TGI read?
Answer: > 100 µM

Question: Which TGI does the source give for `c1ccc(NCn2cnc3ccccc32)cc1` here?
Answer: > 100 µM

Question: Which TGI does the source give for `Cc1cc2c(C)[nH]nc2c(C(=O)O)c1C` here?
Answer: > 100 µM

Question: With `N#C/C(=C\c1cccc(Cl)c1Cl)c1ccccc1` as the molecule, how does the TGI read?
Answer: > 85.6 µM

Question: With `C/C(=N/Nc1ccc([N+](=O)[O-])cc1[N+](=O)[O-])C(CC(C(=O)NCc1ccccc1)/C(C)=N\Nc1ccc([N+](=O)[O-])cc1[N+](=O)[O-])C(=O)NCc1ccccc1` (stereo not drawn) as the molecule, how does the TGI read?
Answer: 5.59 µM

Question: For `COc1ccc(-c2cn[nH]c2-c2cc(OC)c(OC)c(OC)c2)cc1`, which GI50 is on record?
Answer: 0.511 µM

Question: What about the TGI of the same molecule?
Answer: 46.9 µM

Question: What does the source list for `N[C@@H]1CCCC[C@@H]1N.O=P([O-])([O-])CN(CCN(CP(=O)([O-])[O-])CP(=O)([O-])[O-])CP(=O)([O-])[O-].[Pt+2]`?
Answer: GI50: > 25 µM; TGI: > 25 µM

Question: With `CCC(=C/[C@H](C)C/C=C/C(C)=C/[C@@H](C)C(=O)[C@@H](C)[C@H](O)[C@@H](C)CC)/C=C/[C@H]1OC(=O)C=C[C@@H]1C` as the molecule, how does the GI50 read?
Answer: < 0.01 µM

Question: And the TGI?
Answer: 3.67 µM

Question: How did the TGI turn out when `COc1ccc(OC)c(N2CC(N)C2=O)c1` (stereo not drawn) was run?
Answer: > 100 µM

Question: Which GI50 does the source give for `Nc1ccccc1SC(CC(=O)c1ccccc1)c1cccc([N+](=O)[O-])c1` (stereo not drawn) here?
Answer: 14.6 µM

Question: What about the TGI of the same molecule?
Answer: 27.8 µM

Question: How did the TGI turn out when `O=C(/C=C/c1ccc([N+](=O)[O-])cc1)c1ccc(NCc2nc3ccccc3[nH]2)cc1` was run?
Answer: 27.8 µM

Question: With `Cc1cccc(C)c1NC(=O)CCCC(=O)C1/C(=N/NC(=O)CC#N)CCC/C1=N\NC(=O)CC#N` (stereo not drawn) as the molecule, how does the TGI read?
Answer: > 100 µM

Question: What does the source list for `COc1ccc2nc(NC(=O)CSc3nnc4n3S(=O)(=O)c3ccccc3N4c3ccccc3)sc2c1`?
Answer: GI50: > 100 µM; TGI: > 100 µM

Question: `O=c1ccc2ccccc2cc1[O-].O=c1ccc2ccccc2cc1[O-].[O]=[U+2]=[O]` was tested. Which GI50 did it give?
Answer: 14.7 µM

Question: What about the TGI of the same molecule?
Answer: 55.1 µM

Question: Which results are given for `Cc1ccc(-n2c3nc(=O)[nH]c(=O)c-3cc3cc([N+](=O)[O-])ccc32)cc1`?
Answer: GI50: 24.1 µM; TGI: 98.8 µM

Question: `COC(=O)C(CCCN1C(=O)c2ccccc2C1=O)C(=O)OC` was tested. Which TGI did it give?
Answer: > 100 µM

Question: `COc1nc(NC2OC(COC(C)=O)C(OC(C)=O)C(OC(C)=O)C2OC(C)=O)c2c(OC(C)=O)cc(=O)oc2n1` (stereo not drawn) was tested. Which TGI did it give?
Answer: > 100 µM

Question: `CC(C)(C)c1cc2c(O)c3cccc4c(=O)c5cccc6c5-c(c34)c2c(c1)c6=O` was tested. Which TGI did it give?
Answer: > 100 µM

Question: How did the GI50 turn out when `COc1cc(/C(C#N)=C/c2nc3c(N4CCOCC4)nc(Cl)nc3n2C)cc(OC)c1OC` was run?
Answer: < 0.01 µM

Question: And the TGI?
Answer: 41.1 µM

Question: For `O=C1C=CC(=O)c2nc3c(cc21)CCC3`, which TGI is on record?
Answer: 29.7 µM

Question: How did the TGI turn out when `O=S(=O)(N/N=C/c1cccc(/C=N/NS(=O)(=O)c2ccccc2)c1)c1ccccc1` was run?
Answer: > 100 µM

Question: Which TGI does the source give for `CCCCN(CCCC)C(=O)C(=O)C(C(=O)c1ccc(OC)cc1)c1ccc(OC)cc1` (stereo not drawn) here?
Answer: > 100 µM

Question: `C=C(C)CCOC(c1ccccc1)(c1ccccc1)c1ccccc1` was tested. Which TGI did it give?
Answer: > 100 µM

Question: How did the TGI turn out when `COc1ccc(C)cc1-c1cc(Sc2ccccc2)c(-c2cc(C)ccc2OC)o1` was run?
Answer: > 31.6 µM

Question: For `CCn1c(-c2nonc2N)nc2c(C#CC(C)(C)O)nc(OC[C@@H](N)c3ccccc3)cc21`, which GI50 is on record?
Answer: 6.78 µM

Question: What about the TGI of the same molecule?
Answer: 13.3 µM
